Experimental data as given in ChEMBL document CHEMBL4052672, “Discovery of β-d-2'-deoxy-2'-dichlorouridine nucleotide prodrugs as potent inhibitors of hepatitis C virus replication” (Bioorg Med Chem Lett, 2017).
Activity calls are given as the source filed them. The calls are words filed in the database; no cut-off is given here.

What was measured:
[1] = Cytotoxic activity against human HuH7 cells incubated for 6 days by CCK8 assay; type: cell-based, Huh-7
Hepatitis C virus [2] = assay: Antiviral activity against HCV genotype 1b subgenomic replicon infected in human HuH7 Luc-neo cells assessed as inhibition of viral replication by luciferase reporter gene assay; type: functional, cell-based, Hepacivirus hominis; details: Huh-7
[3] = Stability in human intestinal […] S9 fraction assessed as half life at 2 uM by LC-MS/MS method; type: ADME
[4] = Stability in human liver S9 fraction assessed as half life at 2 uM by LC-MS/MS method; type: ADME, tissue-based
[5] = Stability in human whole blood assessed as half life at 2 uM by LC-MS/MS method; type: ADME
[6] = Inhibition of HCV genotype 1b NS5B RNA dependent RNA polymerase; parameters: species or system Hepatitis C virus subtype 1b
Hepatitis C virus [7] = assay: Antiviral activity against HCV genotype 5a subgenomic replicon infected in human Huh7-Lunet cells assessed as inhibition of viral replication by luciferase reporter gene assay; type: functional, cell-based, Hepacivirus hominis; details: Huh-7
Hepatitis C virus [8] = assay: Antiviral activity against HCV genotype 1b subgenomic replicon; type: functional, Hepacivirus hominis
Hepatitis C virus [9] = assay: Antiviral activity against HCV genotype 1b subgenomic replicon expressing NS5B RNA dependent RNA polymerase S282T mutant infected in human HuH7 Luc-neo cells assessed as inhibition of viral replication by luciferase reporter gene assay relative to wild type HCV genotype 1b; type: functional, Hepacivirus hominis
Hepatitis C virus [10] = assay: Antiviral activity against HCV genotype 1a subgenomic replicon infected in human Huh7-Lunet cells assessed as inhibition of viral replication by luciferase reporter gene assay; type: functional, cell-based, Hepacivirus hominis; details: subtype 1a, Huh-7
Hepatitis C virus [11] = assay: Antiviral activity against HCV genotype 2a subgenomic replicon; type: functional, Hepacivirus hominis
Hepatitis C virus [12] = assay: Antiviral activity against HCV genotype 3a subgenomic replicon infected in human Huh7-Lunet cells assessed as inhibition of viral replication by luciferase reporter gene assay; type: functional, cell-based, Hepacivirus hominis; details: Huh-7
Hepatitis C virus [13] = assay: Antiviral activity against HCV genotype 4a subgenomic replicon infected in human Huh7-Lunet cells assessed as inhibition of viral replication by luciferase reporter gene assay; type: functional, cell-based, Hepacivirus hominis; details: Huh-7
Hepatitis C virus [14] = assay: Antiviral activity against HCV genotype 6a subgenomic replicon infected in human Huh7-Lunet cells assessed as inhibition of viral replication by luciferase reporter gene assay; type: functional, cell-based, Hepacivirus hominis; details: Huh-7
[15] = Drug metabolism in human hepatocytes assessed as ((2R,3R,4R,5R)-5-(2,4-dioxo-3,4-dihydropyrimidin-1(2H)-yl)-4-fluoro-3-hydroxy-4-methyltetrahydrofuran-2-yl)methyl tetrahydrogen triphosphate formation at 10 uM after 1 to 24 hrs by LC-MS/MS method; type: ADME, cell-based, Hepatocyte
[16] = Drug metabolism in human hepatocytes assessed as cytidine triphosphate metabolite formation at 10 uM after 1 to 24 hrs by LC-MS/MS method; type: ADME, cell-based, Hepatocyte
[17] = (§1) Inhibition of HCV genotype 1b NS5B Cdelta21 RNA dependent RNA polymerase using cIRES, GTP, UTP and CTP incubated for 30 mins in presence of [3H]-ATP/ATP mixture by scintillation counting method; parameters: species or system Hepatitis C virus subtype 1b
[18] = tested on: Hepatitis C virus subtype 1b; assay: as §1
[19] = Drug metabolism in human hepatocytes assessed as ((2R,3R,5R)-4,4-dichloro-5-(2,4-dioxo-3,4-dihydropyrimidin-1(2H)-yl)-3-hydroxytetrahydrofuran-2-yl)methyl tetrahydrogen triphosphate formation at 10 uM after 1 to 24 hrs by LC-MS/MS method; type: ADME, cell-based, Hepatocyte
[20] = Drug metabolism in human hepatocytes assessed as ((2R,3R,5R)-5-(4-amino-2-oxopyrimidin-1(2H)-yl)-4,4-dichloro-3-hydroxytetrahydrofuran-2-yl)methyl tetrahydrogen triphosphate formation at 10 uM after 1 to 24 hrs by LC-MS/MS method; type: ADME, cell-based, Hepatocyte
Canis familiaris [21] = assay: Drug metabolism in dog liver assessed as ((2R,3R,5R)-5-(4-amino-2-oxopyrimidin-1(2H)-yl)-4,4-dichloro-3-hydroxytetrahydrofuran-2-yl)methyl tetrahydrogen triphosphate formation at 50 mg/kg/day, po for 4 days; type: ADME, organism-based, Canis lupus familiaris; details: in vivo, 96 h
Canis familiaris [22] = assay: Drug metabolism in dog liver assessed as ((2R,3R,5R)-5-(4-amino-2-oxopyrimidin-1(2H)-yl)-4,4-dichloro-3-hydroxytetrahydrofuran-2-yl)methyl tetrahydrogen triphosphate formation at 50 mg/kg/day, po for 4 days measured at 4 hrs on day 4; type: ADME, organism-based, Canis lupus familiaris; details: in vivo
Canis familiaris [23] = assay: Drug metabolism in dog liver assessed as ((2R,3R,5R)-4,4-dichloro-5-(2,4-dioxo-3,4-dihydropyrimidin-1(2H)-yl)-3-hydroxytetrahydrofuran-2-yl)methyl tetrahydrogen triphosphate formation at 50 mg/kg/day, po for 4 days measured at 4 hrs on day 4; type: ADME, organism-based, Canis lupus familiaris; details: in vivo

With C[C@H](NP(=O)(OC[C@H]1O[C@@H](n2ccc(=O)[nH]c2=O)C(Cl)(Cl)[C@@H]1O)Oc1ccccc1)C(=O)OC1CCCCC1 (single isomer, unassigned) the CC50 at 144 h [1] was > 100 µM, the EC50 (Hepatitis C virus [2]) was 0.16 µM and the half-life at 2 µM [3] was 70 min. For the same molecule, the half-life at 2 µM [4] was 3 min and the half-life at 2 µM [5] was 20 min.

For CC[C@@H](C)OC(=O)[C@H](C)NP(=O)(OC[C@H]1O[C@@H](n2ccc(=O)[nH]c2=O)C(Cl)(Cl)[C@@H]1O)Oc1ccccc1 (single isomer, unassigned), the CC50 at 144 h [1] was > 100 µM, the EC50 (Hepatitis C virus [2]) was 0.11 µM and the half-life at 2 µM [3] was 140 min. For the same molecule, the half-life at 2 µM [4] was 8 min and the half-life at 2 µM [5] was 11 min.

For CC(C)OC(=O)[C@H](C)NP(=O)(OC[C@H]1O[C@@H](n2ccc(=O)[nH]c2=O)C(Cl)(Cl)[C@@H]1O)Oc1cccc(C2(C)CC2)c1 (single isomer, unassigned), the CC50 at 144 h [1] was > 100 µM, the EC50 (Hepatitis C virus [2]) was 0.23 µM and the half-life at 2 µM [3] was 20 min. The half-life at 2 µM [4] was 4 min and the half-life at 2 µM [5] was 12 min.

With O=c1ccn([C@@H]2O[C@H](COP(=O)(O)OP(=O)(O)OP(=O)(O)O)[C@@H](O)C2(F)F)c(=O)[nH]1 the IC50 [6] was > 100 µM.

For O=c1ccn([C@@H]2O[C@H](CO)[C@@H](O)C2(Cl)Cl)c(=O)[nH]1, the CC50 at 144 h [1] was > 100 µM and the EC50 (Hepatitis C virus [2]) was > 50 µM.

In the case of CC(C)OC(=O)[C@H](C)N[P@@](=O)(OC[C@H]1O[C@@H](n2ccc(=O)[nH]c2=O)[C@](C)(F)[C@@H]1O)Oc1ccccc1, the EC50 (Hepatitis C virus [7]) is reported as 0.12 µM, the EC50 (Hepatitis C virus [8]) is reported as 0.092 µM and the “Ratio EC50” value (Hepatitis C virus [9]) is reported as 7.8. For the same molecule, the EC50 (Hepatitis C virus [10]) was 0.17 µM, the EC50 (Hepatitis C virus [11]) was 0.05 µM and the EC50 (Hepatitis C virus [12]) was 0.13 µM. For the same molecule, the EC50 (Hepatitis C virus [13]) was 0.23 µM, the EC50 (Hepatitis C virus [14]) was 0.18 µM and the Drug metabolism [15] was “Metabolite_Detected”. For the same molecule, the Drug metabolism [16] was “Metabolite_Detected”.

CC(C)OC(=O)[C@H](C)NP(=O)(OC[C@H]1O[C@@H](n2ccc(=O)[nH]c2=O)C(Cl)(Cl)[C@@H]1O)Oc1ccc(C2(C)CC2)cc1 (single isomer, unassigned) showed a CC50 at 144 h [1] of 62 µM, an EC50 (Hepatitis C virus [2]) of 0.34 µM and a half-life at 2 µM [3] of 60 min. It also gave a half-life at 2 µM [4] of 10 min and a half-life at 2 µM [5] of 8 min.

Nc1ccn([C@@H]2O[C@H](COP(=O)(O)OP(=O)(O)OP(=O)(O)O)[C@@H](O)C2(Cl)Cl)c(=O)n1 gave a Ki [17] of 0.2 µM.

C[C@@]1(F)[C@H](O)[C@@H](COP(=O)(O)OP(=O)(O)OP(=O)(O)O)O[C@H]1n1ccc(=O)[nH]c1=O [GS-461203] showed a Ki [6] of 0.49 µM.

In the case of CC(C)OC(=O)[C@H](C)NP(=O)(OC[C@H]1O[C@@H](n2ccc(=O)[nH]c2=O)C(Cl)(Cl)[C@@H]1O)Oc1cccc(C2CCC2)c1 (single isomer, unassigned), the CC50 at 144 h [1] is reported as > 100 µM, the EC50 (Hepatitis C virus [2]) is reported as 0.22 µM and the half-life at 2 µM [3] is reported as 20 min. For the same molecule, the half-life at 2 µM [4] was 3 min and the half-life at 2 µM [5] was 8 min.

In the case of CC[C@H](C)OC(=O)[C@H](C)NP(=O)(OC[C@H]1O[C@@H](n2ccc(=O)[nH]c2=O)C(Cl)(Cl)[C@@H]1O)Oc1ccccc1 (single isomer, unassigned), the CC50 at 144 h [1] is reported as > 100 µM, the EC50 (Hepatitis C virus [2]) is reported as 0.083 µM and the half-life at 2 µM [3] is reported as 140 min. It also gave a half-life at 2 µM [4] of 7 min and a half-life at 2 µM [5] of 11 min.

With O=c1ccn([C@@H]2O[C@H](COP(=O)(O)OP(=O)(O)OP(=O)(O)O)[C@@H](O)C2(Cl)Cl)c(=O)[nH]1 the inhibition [18] was “Active”.

In the case of CC(C)OC(=O)[C@H](C)N[P@@](=O)(OC[C@H]1O[C@@H](n2ccc(=O)[nH]c2=O)C(Cl)(Cl)[C@@H]1O)Oc1ccccc1, the EC50 (Hepatitis C virus [7]) is reported as 0.053 µM, the CC50 at 144 h [1] is reported as > 100 µM and the EC50 (Hepatitis C virus [2]) is reported as 0.056 µM. The “Ratio EC50” value (Hepatitis C virus [9]) was 4.1, the EC50 (Hepatitis C virus [10]) was 0.07 µM and the EC50 (Hepatitis C virus [11]) was 0.018 µM. For the same molecule, the EC50 (Hepatitis C virus [12]) was 0.068 µM, the EC50 (Hepatitis C virus [13]) was 0.066 µM and the EC50 (Hepatitis C virus [14]) was 0.069 µM. It also gave a half-life at 2 µM [3] of 1380 min, a half-life at 2 µM [4] of 43 min and a half-life at 2 µM [5] of 27 min. For the same molecule, the Drug metabolism [19] was “Metabolite_Detected”, the Drug metabolism [20] was “Metabolite_Detected” and the Drug metabolism (Canis familiaris [21]) was “Metabolite_Detected”. For the same molecule, the Drug metabolism (Canis familiaris [22]) was 0.93 µM and the Drug metabolism (Canis familiaris [23]) was 3.5 µM.

Work on CC(C)OC(=O)[C@H](C)NP(=O)(OC[C@H]1O[C@@H](n2ccc(=O)[nH]c2=O)C(F)(F)[C@@H]1O)Oc1ccccc1 (single isomer, unassigned) yielded an EC50 (Hepatitis C virus [8]) of 0.97 µM.
